{"source": "patent US11712429B2", "about": "“Low eructation composition and methods for treating and/or preventing cardiovascular disease in a subject with fish allergy/hypersensitivity” (Amarin Pharmaceuticals Ireland Limited, priority 2010, dated 2023)", "origin": "cited, not measured here", "system": "subjects with AAMI", "settings": "50 mg, cited from earlier work", "data": [{"compound": "CN[C@@H](C)C/C=C/c1cncc(OC(C)C)c1", "note": "[Ispronicline]", "values": [{"measurement": "Power of Attention, mean", "setting": "Day 21, SD=61.22, placebo mean=28.25", "result": -32.54, "unit": "ms"}, {"measurement": "benefit to Power of Attention (vs placebo)", "setting": "Day 21 of repeated dosing, subjects with AAMI", "result": 61, "unit": "ms"}]}]}
